Laboratory results published in patent US7528205B2, “Photo radical generator, photo sensitive resin composition and article” (Dai Nippon Printing Co., Ltd., priority 2003, dated 2009).

Tests used:
[1] = Evaluation 2 of curability (triethanolamine added as hydrogen donor)
Protocol: (§1) Using a trifunctional acrylate (product name; M-305, manufactured by Toagosei Co., Ltd.) as polyfunctional monomers, the compounds 1 to 14, the comparative compounds 2 and 3 and a photoradical generator Irgacure 907 (product name; manufactured by Ciba Specialty Chemicals) were mixed with each polyfunctional monomer to prepare each THF solution of each photoradical generator.
(§2) The mixing was performed so that a ratio of the photoradical generator to the polyfunctional monomer is such that number of imide part of each of the compounds 1 to 14 and the comparative compounds 2 and 3 with respect to number of double bond of the polyfunctional monomer is 1/50 (number of imide part/number of polyfunctional monomer) or, in the case of Irgacure, number of the molecule with respect to number of double bond of the polyfunctional monomer is 1/50 (number of Irgacure 907/number of polyfunctional monomer).
(§3) Each solution was applied by spin coating to a glass substrate on which chromium was sputtered to obtain coating layers. Also, a layer without initiator component or comparative compounds and only containing trifunctional acrylate was formed as a blank.
(§4) A decrement of the peak at 810 cm^−1 was recorded with time by using an infrared spectrometer (product name: FTS6000; manufactured by BIO RAD) while exposing the above coating layer to ultraviolet rays, to confirm the degree of the disappearance of a double bond. The atmosphere around the sample during measurement was replaced with nitrogen. As the UV exposure apparatus, UV Spot Cure SP-III type (standard reflecting mirror type) manufactured by Ushio Inc. was used and as the UV lamp, USH-255BY (manufactured by Ushio Inc.) was used.
In order to confirm whether or not the seven-membered ring imide structure-containing group was a hydrogen-drawing type radical generator, triethanolamine was added to THF solutions containing each of the compositions 1 to 14 used in the aforementioned Evaluation 1 of curability and trifunctional acrylate M305, coating layers were formed in the same manner as in the aforementioned Evaluation 1 of curability, and evaluated similarly. As comparative examples, each of the comparative compounds 1 and 3 was used.

[2] = Evaluation of heat resistance (thermogravimetry, 5% reduction in weight temperature); assay type: physicochemical; conditions: for 5% heat decomposition temperature: temperature rise rate 10° C./min; for 5% heat decomposition temperature / heat resistance / 5% reduction in weight temperature, comparison in words: nitrogen atmosphere; for residue on heating: heated to 600° C. in a nitrogen atmosphere; for heat resistance / 5% reduction in weight temperature, comparison in words: 10° C./min
Protocol: Herein, the 5% reduction in weight temperature means a temperature at which the weight of a sample is reduced […] when a decrement of weight is measured using a thermogravimetric analyzer according to the same method as in the examples of the present invention as will be explained later. Similarly, the 10% reduction in weight temperature means a temperature at which the weight of a sample is reduced […].
Using a differential type differential thermal balance (product name: TG8120; manufactured by Rigaku Corporation), the 5% reduction in weight temperature of each of the compounds 1 to 15 was measured at a temperature rise rate of 10° C./min in a nitrogen atmosphere. As comparative examples, the comparative compounds 2 and 3 and a self-cleavage type photoradical generator Irgacure 907 (trademark; manufactured by Ciba Specialty Chemicals) were similarly measured.

[3] = Evaluation 1 of curability (coating layer with trifunctional acrylate, UV exposure, no hydrogen donor); conditions: for Reaction rate (decrement of double bond): nitrogen; for Compatibility with M305: imide part/double bond 1/50
Protocol: as §1, §2, §3, §4

CC(=O)OCCn1c(=O)c2ccccc2c2ccccc2c1=O [Compound 2]
Compatibility with M305 [1]: ∘ | Reaction rate (decrement of double bond) ([1]; Exposure 50 mJ): 23.7% | Reaction rate (decrement of double bond) ([1]; Exposure 100 mJ): 29.4% | Reaction rate (decrement of double bond) ([1]; Exposure 400 mJ): 41.1% | 5% heat decomposition temperature [2]: 240 °C | Reaction rate (decrement of double bond) ([3]; Exposure 50 mJ): 0.1% | Reaction rate (decrement of double bond) ([3]; Exposure 100 mJ): 0.2% | Reaction rate (decrement of double bond) ([3]; Exposure 400 mJ): 1.2% | Compatibility with M305 [3]: ∘

CC(=O)OCCOCCn1c(=O)c2ccccc2c2ccccc2c1=O [Compound 3]
Compatibility with M305 [1]: ∘ | Reaction rate (decrement of double bond) ([1]; Exposure 50 mJ): 26.8% | Reaction rate (decrement of double bond) ([1]; Exposure 100 mJ): 32.7% | Reaction rate (decrement of double bond) ([1]; Exposure 400 mJ): 43.7% | 5% heat decomposition temperature [2]: 260 °C | Reaction rate (decrement of double bond) ([3]; Exposure 50 mJ): 0.1% | Reaction rate (decrement of double bond) ([3]; Exposure 100 mJ): 0.2% | Reaction rate (decrement of double bond) ([3]; Exposure 400 mJ): 0.8% | Compatibility with M305 [3]: ∘

CC(=O)OCC(C(C)C)n1c(=O)c2ccccc2c2ccccc2c1=O (stereo not drawn) [Compound 4]
Compatibility with M305 [1]: ∘ | Reaction rate (decrement of double bond) ([1]; Exposure 50 mJ): 22.0% | Reaction rate (decrement of double bond) ([1]; Exposure 100 mJ): 28.2% | Reaction rate (decrement of double bond) ([1]; Exposure 400 mJ): 40.0% | 5% heat decomposition temperature [2]: 208 °C | Reaction rate (decrement of double bond) ([3]; Exposure 50 mJ): 0.2% | Reaction rate (decrement of double bond) ([3]; Exposure 100 mJ): 0.4% | Reaction rate (decrement of double bond) ([3]; Exposure 400 mJ): 0.9% | Compatibility with M305 [3]: ∘

C=COCCCn1c(=O)c2ccccc2c2ccccc2c1=O [Compound 5]
Compatibility with M305 [1]: ∘ | Reaction rate (decrement of double bond) ([1]; Exposure 50 mJ): 23.8% | Reaction rate (decrement of double bond) ([1]; Exposure 100 mJ): 29.2% | Reaction rate (decrement of double bond) ([1]; Exposure 400 mJ): 41.0% | 5% heat decomposition temperature [2]: 213 °C | Reaction rate (decrement of double bond) ([3]; Exposure 50 mJ): 0.4% | Reaction rate (decrement of double bond) ([3]; Exposure 100 mJ): 0.7% | Reaction rate (decrement of double bond) ([3]; Exposure 400 mJ): 2.3% | Compatibility with M305 [3]: ∘

CC(=O)OCCOCCOCCn1c(=O)c2ccccc2c2ccccc2c1=O [Compound 6]
Compatibility with M305 [1]: ∘ | Reaction rate (decrement of double bond) ([1]; Exposure 50 mJ): 33.1% | Reaction rate (decrement of double bond) ([1]; Exposure 100 mJ): 37.9% | Reaction rate (decrement of double bond) ([1]; Exposure 400 mJ): 47.9% | 5% heat decomposition temperature [2]: 257 °C | Reaction rate (decrement of double bond) ([3]; Exposure 50 mJ): 3.2% | Reaction rate (decrement of double bond) ([3]; Exposure 100 mJ): 5.4% | Reaction rate (decrement of double bond) ([3]; Exposure 400 mJ): 14.2% | Compatibility with M305 [3]: ∘

C=CC(=O)OCCn1c(=O)c2ccccc2c2ccccc2c1=O [Compound 7]
Compatibility with M305 [1]: ∘ | Reaction rate (decrement of double bond) ([1]; Exposure 50 mJ): 25.3% | Reaction rate (decrement of double bond) ([1]; Exposure 100 mJ): 30.1% | Reaction rate (decrement of double bond) ([1]; Exposure 400 mJ): 41.3% | residue on heating [2]: carbide was left not decomposed completely | 5% heat decomposition temperature [2]: 233 °C | Reaction rate (decrement of double bond) ([3]; Exposure 50 mJ): 1.5% | Reaction rate (decrement of double bond) ([3]; Exposure 100 mJ): 3.4% | Reaction rate (decrement of double bond) ([3]; Exposure 400 mJ): 7.7% | Compatibility with M305 [3]: ∘

C=CC(=O)OCCOCCn1c(=O)c2ccccc2c2ccccc2c1=O [Compound 8]
Compatibility with M305 [1]: ∘ | Reaction rate (decrement of double bond) ([1]; Exposure 50 mJ): 36.2% | Reaction rate (decrement of double bond) ([1]; Exposure 100 mJ): 41.4% | Reaction rate (decrement of double bond) ([1]; Exposure 400 mJ): 51.4% | heat resistance / 5% reduction in weight temperature, comparison in words [2]: specifically high | residue on heating [2]: carbide was left not decomposed completely | 5% heat decomposition temperature [2]: 357 °C | Reaction rate (decrement of double bond) ([3]; Exposure 50 mJ): 5.0% | Reaction rate (decrement of double bond) ([3]; Exposure 100 mJ): 7.3% | Reaction rate (decrement of double bond) ([3]; Exposure 400 mJ): 21.4% | Compatibility with M305 [3]: ∘

C=CC(=O)OCCOCCOCCn1c(=O)c2ccccc2c2ccccc2c1=O [Compound 9]
Compatibility with M305 [1]: ∘ | Reaction rate (decrement of double bond) ([1]; Exposure 50 mJ): 13.8% | Reaction rate (decrement of double bond) ([1]; Exposure 100 mJ): 19.9% | Reaction rate (decrement of double bond) ([1]; Exposure 400 mJ): 34.4% | 5% heat decomposition temperature [2]: 295 °C | Reaction rate (decrement of double bond) ([3]; Exposure 50 mJ): 0.5% | Reaction rate (decrement of double bond) ([3]; Exposure 100 mJ): 0.7% | Reaction rate (decrement of double bond) ([3]; Exposure 400 mJ): 1.2% | Compatibility with M305 [3]: ∘

O=c1c2ccccc2c2ccccc2c(=O)n1CCOCCn1c(=O)c2ccccc2c2ccccc2c1=O [Compound 10]
Compatibility with M305 [1]: ∘ | Reaction rate (decrement of double bond) ([1]; Exposure 50 mJ): 30.8% | Reaction rate (decrement of double bond) ([1]; Exposure 100 mJ): 40.7% | Reaction rate (decrement of double bond) ([1]; Exposure 400 mJ): 45.9% | 5% heat decomposition temperature [2]: 204 °C | Reaction rate (decrement of double bond) ([3]; Exposure 50 mJ): 4.0% | Reaction rate (decrement of double bond) ([3]; Exposure 100 mJ): 6.8% | Reaction rate (decrement of double bond) ([3]; Exposure 400 mJ): 17.4% | Compatibility with M305 [3]: ∘

O=c1c2ccccc2c2ccccc2c(=O)n1CCOCCOCCOCCn1c(=O)c2ccccc2c2ccccc2c1=O [Compound 11]
Compatibility with M305 [1]: ∘ | Reaction rate (decrement of double bond) ([1]; Exposure 50 mJ): 18.0% | Reaction rate (decrement of double bond) ([1]; Exposure 100 mJ): 21.3% | Reaction rate (decrement of double bond) ([1]; Exposure 400 mJ): 29.4% | 5% heat decomposition temperature [2]: 240 °C | Reaction rate (decrement of double bond) ([3]; Exposure 50 mJ): 27.9% | Reaction rate (decrement of double bond) ([3]; Exposure 100 mJ): 37.3% | Reaction rate (decrement of double bond) ([3]; Exposure 400 mJ): 42.3% | Compatibility with M305 [3]: ∘

O=c1c2ccccc2c2ccccc2c(=O)n1CCOCCOCCOCCOCCOCCn1c(=O)c2ccccc2c2ccccc2c1=O [Compound 12]
Compatibility with M305 [1]: ∘ | Reaction rate (decrement of double bond) ([1]; Exposure 50 mJ): 25.2% | Reaction rate (decrement of double bond) ([1]; Exposure 100 mJ): 30.7% | Reaction rate (decrement of double bond) ([1]; Exposure 400 mJ): 40.6% | 5% heat decomposition temperature [2]: 276 °C | Reaction rate (decrement of double bond) ([3]; Exposure 50 mJ): 11.0% | Reaction rate (decrement of double bond) ([3]; Exposure 100 mJ): 15.2% | Reaction rate (decrement of double bond) ([3]; Exposure 400 mJ): 24.8% | Compatibility with M305 [3]: ∘

CN(C)CCn1c(=O)c2ccccc2c2ccccc2c1=O [Compound 13]
Compatibility with M305 [1]: ∘ | Reaction rate (decrement of double bond) ([1]; Exposure 50 mJ): 11.0% | Reaction rate (decrement of double bond) ([1]; Exposure 100 mJ): 15.2% | Reaction rate (decrement of double bond) ([1]; Exposure 400 mJ): 24.8% | heat resistance / 5% reduction in weight temperature, comparison in words [2]: slightly lower 5% reduction in weight temperature | 5% heat decomposition temperature [2]: 177 °C | Reaction rate (decrement of double bond) ([3]; Exposure 50 mJ): 0.2% | Reaction rate (decrement of double bond) ([3]; Exposure 100 mJ): 0.8% | Reaction rate (decrement of double bond) ([3]; Exposure 400 mJ): 4.2% | Compatibility with M305 [3]: ∘

CC(=O)OCCN(CCn1c(=O)c2ccccc2c2ccccc2c1=O)C(C)=O [Compound 14]
Compatibility with M305 [1]: ∘ | Reaction rate (decrement of double bond) ([1]; Exposure 50 mJ): 16.8% | Reaction rate (decrement of double bond) ([1]; Exposure 100 mJ): 20.9% | Reaction rate (decrement of double bond) ([1]; Exposure 400 mJ): 30.5% | 5% heat decomposition temperature [2]: 234 °C | Reaction rate (decrement of double bond) ([3]; Exposure 50 mJ): 1.0% | Reaction rate (decrement of double bond) ([3]; Exposure 100 mJ): 2.0% | Reaction rate (decrement of double bond) ([3]; Exposure 400 mJ): 6.4% | Compatibility with M305 [3]: ∘

CSc1ccc(C(=O)C(C)(C)N2CCOCC2)cc1 [Irg907, reference compound]
5% heat decomposition temperature [2]: 207 °C | Reaction rate (decrement of double bond) ([3]; Exposure 50 mJ): 34.8% | Reaction rate (decrement of double bond) ([3]; Exposure 100 mJ): 40.8% | Reaction rate (decrement of double bond) ([3]; Exposure 400 mJ): 50.6% | Compatibility with M305 [3]: ∘

C=CC(=O)OCCN1C(=O)C2=C(CCCC2)C1=O [compound 2, reference compound]
Compatibility with M305 [1]: ∘ | Reaction rate (decrement of double bond) ([1]; Exposure 50 mJ): 1.3% | Reaction rate (decrement of double bond) ([1]; Exposure 100 mJ): 2.0% | Reaction rate (decrement of double bond) ([1]; Exposure 400 mJ): 8.6% | 5% heat decomposition temperature [2]: 184 °C | Reaction rate (decrement of double bond) ([3]; Exposure 50 mJ): 0.1% | Reaction rate (decrement of double bond) ([3]; Exposure 100 mJ): 0.3% | Reaction rate (decrement of double bond) ([3]; Exposure 400 mJ): 2.0% | Compatibility with M305 [3]: ∘
